Results taken from US11814428B2, “Anti-PTCRA antibody-drug conjugates and uses thereof” (REGENERON PHARMACEUTICALS, INC., priority 2019, dated 2023).

Test system: SupT1 cells
Assay: Proliferation of T-ALL cells treated with SRC-family kinase inhibitor
Type: cell-based, human
Conditions: PTCRA-dependent T-ALL cell lines

With Cc1ccc(-c2nn(C(C)(C)C)c3ncnc(N)c23)cc1 [PP1] the anti-proliferative response was “dose-dependent anti-proliferative response”.
